How the values were obtained:
[1] = target: T1, HLA-DM catalyzed peptide exchange on HLA-DR2 (Homo sapiens, UniProt P28067+P28068); assay: Antigen Presentation Screen: fluorescence polarization association assay of Alexa 488-labeled MBP 85-99 binding to HLA-DR2b/CLIP in the presence of HLA-DM; format: biochemical
T1 construct: made in house; host or cells: HLA-DM: S2 insect cells; HLA-DR2b: COS cells; peptides synthesized by New England Peptide, Inc
From the text: In one detailed aspect of the invention, an assay is described below for detecting and monitoring HLA-DM catalyzed peptide exchange. In particular, the kinetics of peptide exchange can be evaluated and the effects on such kinetics of test compounds can be evaluated. A labeled peptide, such as a fluorescently labled MBP peptide, can be visualized binding to isolated HLA-DR2 in the presence of HLA-DM by Fluorescence Polarization (FP). FP can detect the motion of a fluorescently labeled peptide such as MBP (85-99). The FP detected increases when a fluorescently labeled peptide binds to a receptor. This assay may allow peptide binding to HLA-DR2 to be monitored in real time without interrupting the reaction. In this manner, a number of readings can be made at different times during a single assay. This can provide information about the rate of transfer of a peptide, leading to the identification of compounds that increase or decrease the rate of peptide exchange. It may also lead to the identification of compounds that decrease the rate of peptide exchange by directly preventing peptide binding to MHC class II.
In the assay described below (Antigen Presentation Screen), Fluorescence Polarization (FP) can be used to monitor the kinetics, including the exchange rate, of exchanging CLIP for myelin basic protein (MBP) peptide on isolated HLA-DR2. MBP peptide consisting of amino acids 85-99 of Myelin Basic Protein is labeled with the fluorescent dye Alexa 488 at the P5 position. The CLIP may be unlabled. A system of isolated HLA-DR2 containing CLIP and labeled MBP peptide are incubated in the presence of HLA-DM. The system may be exposed to test compounds and FP can be used to measure the rate of exchange of CLIP for MBP for each test compound, including a control. A change in fluorescence polarization is monitored and/or recorded using a 485 nm excitation filter and a 530 nm emission filter in a LJL Analyst. Fluorescence readings taken at time intervals can indicate how fast CLIP is being exchanged for MBP in the presence of HLA-DM.
Proteins: HLA-DR2b containing the CLIP peptide in PBS buffer synthesized by COS cells with covalently linked CLIP peptide. The linker is cut with the addition of 25 U/ml of Thrombin (Novagen 69671) (2 hr incubation at 37° C.) and blocked with Pefablock (Roche 1429-868).
HLA-DM in PBS buffer, synthesized in S2 insect cells. Purified on a anti-FLAG column with a high pH elution (50 mM CAPS pH 11.5)
Peptides: MBP 85-99 (Alexa 488 at P5 position) in H2O
• 1. Add 0.4 μl of library compound in 100% DMSO to wells (see FIG. 7) containing HLA-DR2b. (Library compounds at 50 mM). Also add 0.4 μl DMSO to all control wells during this step. This step can be carried out days before screening commences. • 2. Add 35 μl of 50 mM Citrate pH5.2/150 mM NaCl buffer to wells M23, […], N23 and N24. Add 40 μl of 50 mM Citrate pH 5.2/150 mM NaCl buffer to wells O23, O24, P23 and P24. Add 35 μl of 114 nM HLA-DR2b in 50 mM Citrate pH 5.2/150 mM NaCl buffer to appropriate wells in 384 well plate as shown below in FIG. 9. Make 114 nM HLA-DR2b solution fresh and keep cold until just before addition of library compounds • 5. By hand add 1 μl of MBP 85-99 (unlabeled) titration to control wells as described below in FIG. 10. • 6. Mix HLA-DR2b and compound by shaking with plate shaker for 1 minute. • 7. Incubate HLA-DR2b and compound for 30 minutes at room temperature. • 8. By hand add 5 μl of 80 nM MBP 85-99 (Alexa 488 at P5 position) to control wells (FIG. 11) as described below while plate is incubating at room temperature. • 9. During 30 minute incubation read plates for Fluorescent Intensity using the Analyst (Molecular Devices) Parameters described below. This step is optional if Fluorescent Intensity references have already been read for the compounds being screened. • 10. Add 5 p. 1 of MBP/DM mix (80 nM MBP 85-99 (Alexa 488 at P5 position)/800 nM HLA-DM in 50 mM Citrate pH 5.2/150 mM NaCl buffer) to begin reaction. […]

[2] = target: T1, HLA-DM catalyzed peptide exchange on HLA-DR2; assay: Dissociation assay: MBP peptide dissociating from HLA-DR2 in the presence of HLA-DM and 100-fold excess unlabeled MBP; format: biochemical; settings: FIG. 5, F15 versus DMSO
From the text: FIG. 5b illustrates graphically a dissociation assay of MBP peptide dissociating from HLA-DR2 in the presence of HLA-DM and 100-fold excess unlabeled MBP in the peptide for both F15 and DMSO;
FIGS. 5a and 5b graphically illustrate the dose reponse curve for compound F15 for disassociation (5a) and association (5b) assays.

T1 sequence (P28067 27-233 limits assumed): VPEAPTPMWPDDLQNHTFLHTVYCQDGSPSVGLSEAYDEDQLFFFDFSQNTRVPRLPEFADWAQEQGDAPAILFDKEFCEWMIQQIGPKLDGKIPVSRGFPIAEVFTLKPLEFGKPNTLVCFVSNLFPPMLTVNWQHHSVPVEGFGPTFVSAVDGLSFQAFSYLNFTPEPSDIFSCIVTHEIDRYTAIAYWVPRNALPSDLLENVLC
T1 sequence (P28068 19-218 limits assumed): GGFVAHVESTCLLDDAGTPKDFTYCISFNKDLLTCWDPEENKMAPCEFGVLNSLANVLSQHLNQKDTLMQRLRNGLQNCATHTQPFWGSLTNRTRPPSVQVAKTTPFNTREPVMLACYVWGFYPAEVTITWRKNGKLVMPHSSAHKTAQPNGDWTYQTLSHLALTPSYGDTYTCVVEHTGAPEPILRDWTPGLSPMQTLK

increase in binding (FP) compared to the control ([1]; 30 minute sampling time, FIG. 3): about 25% | acceleration of peptide exchange over the control (factor) ([1]; F15 at 10 uM, FIG. 4): 3 | Vmax (initial velocity of MBP/HLA-DR2 binding) ([1]; F15 at 10 uM, increasing levels of DR2b, HLA-DM present, FIG. 4, control Vmax 0.02521): 0.07611 | concentration at which a significant increase in the rate of peptide exchange is seen (as low as) ([1]; association assay, FIG. 3, various concentrations of F15): 1 µM | total amount of peptide exchange compared to the control ([1]; over a 6 hour period, FIG. 3): about equal
SMILES: N#CC1=C(SC2CCCCC2)CC(C(=O)O)=C1c1ccc(Cl)cc1 [Compound F15]
dose response curve, association assay ([1]; FIG. 5, F15 versus DMSO): substantial effect even at very low concentrations | dose response curve, dissociation assay [2]: substantial effect even at very low concentrations
